Source: patent publication US20100022475A1, “NOVEL TRIAZOLOPYRIMIDINE DERIVATIVES” (priority 2004, published 2010)

Experiments:
Alternaria solani = Alternaria solani / tomato / preventive; assay type: in vivo; conditions: 200 ppm, spray, tomato plants cv. Roter Gnom, assessed 4 days after inoculation
Botrytis cinerea = Botrytis cinerea / tomato / preventive; assay type: in vivo; conditions: 200 ppm, spray, tomato plants cv. Roter Gnom, assessed 3 days after inoculation
Puccinia recondita = Puccinia recondita / wheat / preventive (brown rust); assay type: in vivo; conditions: 200 ppm, spray, wheat plants cv. Arina, assessed 11 days after inoculation
[1] = tested on: Magnaporthe grisea (Pyricularia oryzae); assay type: in vivo; conditions: 200 ppm, spray, rice plants cv. Koshihikari, preventive, assessed 6 days after inoculation
[2] = tested on: Pyrenophora teres (Helminthosporium teres); assay: Pyrenophora teres (Helminthosporium teres) / barley / preventive (net blotch); assay type: in vivo; conditions: 200 ppm, spray, barley plants cv. Regina, assessed 4 days after inoculation
Septoria tritici = Septoria tritici / wheat / preventive (Septoria leaf spot); assay type: in vivo; conditions: 200 ppm, spray, wheat plants cv. Riband, assessed 16-18 days after inoculation

SMILES | inhibits fungal infestation (Alternaria solani) [%] | inhibits fungal infestation (Botrytis cinerea) [%] | inhibits fungal infestation (Puccinia recondita) [%] | inhibits fungal infestation [1] [%] | inhibits fungal infestation [2] [%] | inhibits fungal infestation (Septoria tritici) [%] | melting point [°C]
C[Si]1(CNc2c(-c3c(F)cc(F)cc3F)c(Cl)nc3ncnn23)CCCC1 [I.d.081, [5-chloro-6-(2,4,6-trifluoro-phenyl)-[1,2,4]triazolo[1,5-a]pyrimidin-7-yl]-(1-methyl-silolan-1-ylmethyl)-amine] | ≥ 80 | ≥ 80 | ≥ 80 | ≥ 80 | ≥ 80 | ≥ 80 | 138 to 139
C[Si]1(CNc2c(-c3c(F)cc(F)cc3F)c(Cl)nc3ncnn23)CCCCC1 [I.o.081, [5-chloro-6-(2,4,6-trifluoro-phenyl)-[1,2,4]triazolo[1,5-a]pyrimidin-7-yl]-(1-methyl-silinan-1-ylmethyl)-amine] | – | – | – | – | – | – | 150 to 152
